This is an account of results in US5770420A, “Methods and products for the synthesis of oligosaccharide structures on glycoproteins, glycolipids, or as free molecules, and for the isolation of cloned genetic sequences that determine these structures” (The Regents of the University of Michigan, priority 1995, dated 1998).

Where two headings read alike, the source gives them in different places.

Assay [1] has as its target human Fuc-TVI (α(1,3)fucosyltransferase), wild type, SEQ ID NO:14 (Homo sapiens, UniProt P51993). Particulars: read-out: Apparent Km LNB-I; acceptor 0.25-167 mM, 3 mM GDP-[14C]fucose (so in the source), pH 6.2, 37° C. As for the experimental part: (§1) Extracts for α(1,3)Fuc-T assays were prepared by harvesting COS-7 cells 72 hours after transfection, and solubilizing the cell pellets in 1% Triton X-100 (Kukowska-Latallo, J. F., et al (1990) Genes Devel., vol. 4, 1288-1303; Lowe, J. B., et al (1991) J. Biol. Chem., vol. 266, 17467-17477; Weston, B. W., et al (1992) J. Biol. Chem., vol. 267, 4152-4160; Weston, B. W., et al (1992) J. Biol. Chem. vol. 267, 24575-24584). Cell extract protein contents were determined with a micro BCA protein assay reagent (Pierce). Fucosyltransferase assays were performed in a final volume of 20 μl, and contained 25 mM sodium cacodylate (pH 6.2), 5 mM ATP, 10 mM L-fucose, 20 mM MnCl2 and 3 mM GDP-[^14 C]fucose. Cell extract protein concentration was varied to approximate linear reaction rate conditions (net [14C]-fucose incorporation rate of a less than twenty percent of total input GDP-[^14 C]fucose radioactivity). […] Reactions were incubated at 37° C. for one hour and were terminated by the addition of 20 μl ethanol, followed by dilution with […] water. The total radioactivity in each reaction was determined by subjecting an aliquot to scintillation counting. To assess the amount of radioactive fucose incorporated into product, an additional aliquot was applied to a Dowex 1×2-400 column in the formate form (Sasaki, K., et al (1994) J. Biol. Chem., vol. 269, 14730-14737; Natsuka, S., et al (1994) J. Biol. Chem., vol. 269, 16789-16794; Macher, B. A., et al (1991) Glycobiology, vol. 1, 577-584; Natsuka, S., and Lowe, J. B. (1994) Curr. Opin. Struct. Biol., vol. 4, 683-691). The flow through fraction plus an additional 2 ml of a water column "wash" was collected, pooled and subjected to scintillation counting. Control assays containing no added acceptor substrate were also completed in parallel.

The subject of assay [2] is chimera Fuc-TC4: Fuc-TVI (1-159) plus Fuc-TIII (161-361). Conditions: acceptor 0.25-167 mM, 3 mM GDP-[14C]fucose (so in the source), pH 6.2, 37° C. How it is done: as §1
The test system of assay [3] is chimera Fuc-TC20: Fuc-TVI (1-98) plus Fuc-TIII (100-160) plus Fuc-TVI (160-359). Conditions: acceptor 0.25-167 mM, 3 mM GDP-[14C]fucose (so in the source), pH 6.2, 37° C. As for the experimental part: as §1
Assay [4] deals with chimera Fuc-TC2: Fuc-TIII (1-160) plus Fuc-TVI (160-359). Particulars: acceptor 0.25-167 mM, 3 mM GDP-[14C]fucose (so in the source), pH 6.2, 37° C. As for the experimental part:
as §1

For assay [5], the system named is chimera Fuc-TC19: Fuc-TIII (1-99) plus Fuc-TVI (99-159) plus Fuc-TIII (161-361). Particulars: acceptor 0.25-167 mM, 3 mM GDP-[14C]fucose (so in the source), pH 6.2, 37° C. How it is done:
as §1

The subject of assay [6] is chimera Fuc-TC18: Fuc-TVI (1-85) plus Fuc-TIII (87-160) plus Fuc-TVI (160-359). Particulars: acceptor 0.25-167 mM, 3 mM GDP-[14C]fucose (so in the source), pH 6.2, 37° C. How it is done: as §1
In assay [7] the target is IgG-Sepharose. Nature of the assay: batch binding of conditioned medium to IgG-Sepharose, washed matrix assayed for enzyme activity.
The target in assay [8] is IgG-Sepharose. Briefly: batch binding of conditioned medium to IgG-Sepharose, enzyme activity assayed.

Broadly, the Km is the concentration of substrate that gives half-maximal velocity. For `CC(=O)N[C@H]1C(O)O[C@H](CO)[C@@H](O)[C@@H]1O[C@@H]1O[C@H](CO)[C@H](O)[C@H](O)[C@H]1O` (stereo partly shown) [LNB-I, lacto-N-biose I], the Km in assay [1], in assay [2] (read-out: Apparent Km LNB-I), in assay [3] (read-out: Apparent Km LNB-I), in assay [4] (read-out: Apparent Km LNB-I), in assay [5] (read-out: Apparent Km LNB-I) and in assay [6] (read-out: Apparent Km LNB-I) was over 50 mM throughout.
“protein A-fucosyltransferase fusion protein encoded by pPROTA-α(1,3/1,4)FTc (from UniProt P02976) (enzyme)”: the percent of activity recovered from the matrix after exhaustive washing in assay [7] was 24%. In addition, the percent of released activity retained in assay [8] amounted to 100%.
“protein A-α(1,2)fucosyltransferase fusion protein encoded by pPROTA-α(1,2)FTc (from UniProt P02976) (enzyme)”: in assay [8], the percent of released activity retained worked out at 100%.
“protein A-Fuc-TIV fusion protein encoded by pPROTA-α(Fuc-TIV)c (from UniProt P02976) (enzyme)”: the percent of released activity retained in assay [8] was determined as 100%.
On the same count and under the same terms, the result for “protein A-Fuc-TV fusion protein encoded by pPROTA-Fuc-TVc (from UniProt P02976) (enzyme)” reads 100%.
In the case of `CC(=O)N[C@H]1C(O)O[C@H](CO)[C@@H](O[C@@H]2O[C@H](CO)[C@H](O)[C@H](O)[C@H]2O)[C@@H]1O` (stereo partly shown) [LacNAc, N-acetyllactosamine], the Km in assay [2] (read-out: Apparent Km LacNAc) was 5.8 mM; in assay [3] (read-out: Apparent Km LacNAc) it was over 50 mM; in assay [4] (read-out: Apparent Km LacNAc), over 50 mM; in assay [5] (read-out: Apparent Km LacNAc), 1.1 mM; in assay [6] (read-out: Apparent Km LacNAc), over 50 mM.
